# Laboratory results as given in patent US20090227680A1, “Amino Acid Derivatives” (Pfizer, Inc., priority 2005, published 2009).
# Where a name gives a salt, the structure may show the parent alone.
# Biological target: T1, α2δ subunit derived from porcine brain tissue (Sus scrofa, UniProt A0A287BIN3)
# T1 construct: the α2δ subunit derived from porcine brain tissue; from tissue; host or cells: porcine brain tissue
# Experiment: radioligand binding assay using [3H]gabapentin and the α2δ subunit
# Details: [3H]gabapentin binding
# Text: The biological activity of the alpha-2-delta ligands of the invention may be measured in a radioligand binding assay using [^3H]gabapentin and the α2δ subunit derived from porcine brain tissue (Gee N. S., Brown J. P., Dissanayake V. U. K., Offord J., Thurlow R., Woodruff G. N., J. Biol. Chem., 1996; 271:5768-5776). Results may be expressed in terms of μM or nM α2δ binding affinity.
# T1 sequence (A0A287BIN3 25-1109): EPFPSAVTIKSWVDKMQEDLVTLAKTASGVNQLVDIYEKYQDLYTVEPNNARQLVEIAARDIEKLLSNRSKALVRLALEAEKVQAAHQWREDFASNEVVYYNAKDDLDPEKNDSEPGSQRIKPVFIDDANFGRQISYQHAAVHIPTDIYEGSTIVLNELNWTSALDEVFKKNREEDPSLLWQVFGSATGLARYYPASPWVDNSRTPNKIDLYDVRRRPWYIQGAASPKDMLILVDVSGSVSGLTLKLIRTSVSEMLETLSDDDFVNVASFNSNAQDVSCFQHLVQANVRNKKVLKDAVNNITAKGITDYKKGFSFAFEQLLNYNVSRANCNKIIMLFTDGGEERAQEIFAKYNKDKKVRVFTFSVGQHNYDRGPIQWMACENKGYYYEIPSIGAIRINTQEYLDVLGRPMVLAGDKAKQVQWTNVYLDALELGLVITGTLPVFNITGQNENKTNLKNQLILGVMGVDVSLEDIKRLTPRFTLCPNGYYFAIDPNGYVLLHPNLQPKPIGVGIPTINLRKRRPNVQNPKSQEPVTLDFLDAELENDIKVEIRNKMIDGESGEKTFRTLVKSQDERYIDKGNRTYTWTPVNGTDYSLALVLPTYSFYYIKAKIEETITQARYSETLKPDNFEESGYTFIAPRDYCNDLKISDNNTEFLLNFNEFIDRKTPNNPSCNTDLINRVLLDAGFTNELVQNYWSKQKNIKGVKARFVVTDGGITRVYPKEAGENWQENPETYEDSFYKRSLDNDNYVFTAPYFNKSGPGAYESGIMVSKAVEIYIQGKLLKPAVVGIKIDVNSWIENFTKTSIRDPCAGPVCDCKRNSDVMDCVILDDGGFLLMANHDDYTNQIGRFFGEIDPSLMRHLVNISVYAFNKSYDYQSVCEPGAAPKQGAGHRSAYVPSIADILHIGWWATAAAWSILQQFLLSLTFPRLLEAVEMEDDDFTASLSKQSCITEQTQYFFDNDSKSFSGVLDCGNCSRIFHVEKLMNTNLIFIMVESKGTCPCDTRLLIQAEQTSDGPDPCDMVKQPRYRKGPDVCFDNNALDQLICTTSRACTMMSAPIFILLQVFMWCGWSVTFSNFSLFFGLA
row,IC50,SMILES
1,9 nM,"NC[C@H](Oc1cc(Cl)ccc1Cl)C(=O)O [Example 1, (2S)-3-Amino-2-(2,5-dichlorophenoxy)propanoic acid hydrochloride]"
2,91 nM,NC[C@H](Oc1cccc(Cl)c1)C(=O)O [Example 2]
3,124 nM,NC[C@H](Oc1ccccc1Cl)C(=O)O [Example 3]
4,12 nM,COc1ccc(Cl)cc1O[C@@H](CN)C(=O)O [Example 4]
5,114 nM,"CCCc1cccc(O[C@@H](CN)C(=O)O)c1 [Example 5, (2S)-3-Amino-2-(3-propylphenoxy)propanoic acid hydrochloride]"
